Source: publication PMC9959676 (Molecules, 2023)
Where two headings read alike, the source gives them in different places.

Columns and labels:
[1] = DPPH free radical scavenging assay; conditions: 1.0 mL sample 0.5 mg/mL + 2 mL DPPH 0.2 mg/mL, 30 min, 517 nm
Experimental: The DPPH assay was carried out to estimate the antioxidant potential among all the compounds [29]. Then, 2 mL (0.2 mg/mL in methyl alcohol) of DPPH was mixed with 1.0 mL (0.5 mg/mL in methyl alcohol) of the sample solution in a test tube. All the reaction tubes were covered with aluminum foil and kept aside for 30 min to complete the reaction. The activity was carried out in a dark room. […] A UV-visible spectrophotometer was employed to observe a reduction in the concentration of free radicals at 517 nm. The absorbance of the control (1.0 mL methanol + 2 mL DPPH solution) was also measured. All samples were evaluated in a triplicate manner, and the mean results were recorded. The standard antioxidant (ascorbic acid) was evaluated and set as a reference/standard. The percentage of inhibition (%) was calculated using the following formula in terms of scavenging activity(S):S (%) = [(Ab − Aa)/Ab] × 100(1) where Ab = Absorbance of control; and Aa = Absorbance of the test sample

thoracic aorta segments = experiment: Inhibition of phenylephrine-induced contraction on isolated aorta rings; design: species or system male Wistar rats; conditions: compounds 10^−4 M in organ bath, phenylephrine 10^−6 M, n = 5
Experimental: (§1) Cervical disruption was used to eliminate male Wistar rats weighing 200 g and 300 g. The thoracic aorta segments (3 mm to 5 mm) were slightly pressed and […]. The tissues were placed in an organ bath filled with 10 mL of Krebs-Henseleit solution and kept at 37 °C. Then 95% oxygen and 5% carbon dioxide were passed through the above-mentioned solution. To record organ responses to phenylephrine, (10^−6 M) (Sigma, St. Louis, MO, USA) simulated contractions; isometric transducers and Gemini recorders (Ugo Basile, Varese, Italy) were assembled. Aortic rings were recon traced with phenylephrine (10^−6 M) and subjected to acetylcholine (10^−6 M) for recording endothelium-dependent relaxations (EDR). All synthesized compounds along with the standard (valsartan) were mixed in DMSO; whereas synthesized derivatives of concentration 10^−4 M were added in an organ bath. In conscious rats, systolic blood pressure was recorded by applying the tail-cuff method. Wistar rats of 200 g to 250 g weight were selected and divided into groups of five individuals. The chemicals were injected intraperitoneally at a dosage of 80 mg/kg body weight. The tail-cuff and a piezoelectric pulse sensor were coupled to a blood pressure analyzer and were positioned at the base of the tail (May 9610, Ankara, Turkey).
(§2) All results were presented as the mean of SEM. (n = 5) and test compounds were employed for statistical significance determination.

conscious rats = experiment: Antihypertensive effect, systolic blood pressure by tail-cuff method in conscious rats; assay type: in vivo, Wistar rats; conditions: 80 mg/kg intraperitoneally, n = 5, Control 108.28 ± 6.87, DMSO 81.10 ± 3.21
Experimental: as §1, §2

urease = urease (Canavalia ensiformis, UniProt P07374); experiment: biochemical; assay type: biochemical
Experimental: The activity performed was an improved procedure of the Berthelot assay. […] For 5 min, the mixture was incubated at 37 °C. Each well in a 96-well plate received 40 µL of urea stock solution (20 mM); incubated for 10 min at 37 °C. Afterwards, 115 µL phenol hypochlorite (45 µL phenol + 70 µL alkali) per well was added. Furthermore, all the contents were incubated for 10 min at 37 °C. Absorbance at 625 nm was measured. Using the provided formula, the % of enzyme-inhibition and IC-50 values were computed Inhibition (%age) = [Control − test/100(control)] where Control = [Total enzyme activity minus inhibitor]. The test is the test compounds’ activity

Bacillus pumilus = experiment: Antibacterial agar-well diffusion; assay type: cell-based; conditions: sample 100 mg/5 mL in DMSO; ceftriaxone sodium 20 mg/10 mL; 37 °C, 24 h; 6 mm wells
Experimental: (§3) After sterilizing the Mueller Hinton agar medium on plates in an autoclave and allowing it to cool to roughly 45 °C, a 100 µL standard inoculum was aseptically mixed, chilled till 37 °C, and 6 mm wells were formed in the inoculated plates. The volume of 100 μL (100 mg/5 mL in DMSO), ceftriaxone sodium (20 mg/10 mL in DMSO) as a positive control, and pure DMSO as a negative control; 30 μL of the sample solution was incorporated into these wells. These primed plates were incubated at 37 °C for 24 h prior to record inhibitory zones in millimeters.

Escherichia coli = experiment: Antibacterial agar-well diffusion; assay type: cell-based; conditions: sample 100 mg/5 mL in DMSO; ceftriaxone sodium 20 mg/10 mL; 37 °C, 24 h; 6 mm wells
Experimental: as §3

Pseudomonas aeruginosa = experiment: Antibacterial agar-well diffusion; assay type: cell-based; conditions: sample 100 mg/5 mL in DMSO; ceftriaxone sodium 20 mg/10 mL; 37 °C, 24 h; 6 mm wells
Experimental: as §3

Staphylococcus aureus = experiment: Antibacterial agar-well diffusion; assay type: cell-based; conditions: sample 100 mg/5 mL in DMSO; ceftriaxone sodium 20 mg/10 mL; 37 °C, 24 h; 6 mm wells
Experimental: as §3

[2] = urease, pH 7.0, 37 °C, read-out: IC50 ± SEM

urease, sequence (P07374 whole entry, looked up): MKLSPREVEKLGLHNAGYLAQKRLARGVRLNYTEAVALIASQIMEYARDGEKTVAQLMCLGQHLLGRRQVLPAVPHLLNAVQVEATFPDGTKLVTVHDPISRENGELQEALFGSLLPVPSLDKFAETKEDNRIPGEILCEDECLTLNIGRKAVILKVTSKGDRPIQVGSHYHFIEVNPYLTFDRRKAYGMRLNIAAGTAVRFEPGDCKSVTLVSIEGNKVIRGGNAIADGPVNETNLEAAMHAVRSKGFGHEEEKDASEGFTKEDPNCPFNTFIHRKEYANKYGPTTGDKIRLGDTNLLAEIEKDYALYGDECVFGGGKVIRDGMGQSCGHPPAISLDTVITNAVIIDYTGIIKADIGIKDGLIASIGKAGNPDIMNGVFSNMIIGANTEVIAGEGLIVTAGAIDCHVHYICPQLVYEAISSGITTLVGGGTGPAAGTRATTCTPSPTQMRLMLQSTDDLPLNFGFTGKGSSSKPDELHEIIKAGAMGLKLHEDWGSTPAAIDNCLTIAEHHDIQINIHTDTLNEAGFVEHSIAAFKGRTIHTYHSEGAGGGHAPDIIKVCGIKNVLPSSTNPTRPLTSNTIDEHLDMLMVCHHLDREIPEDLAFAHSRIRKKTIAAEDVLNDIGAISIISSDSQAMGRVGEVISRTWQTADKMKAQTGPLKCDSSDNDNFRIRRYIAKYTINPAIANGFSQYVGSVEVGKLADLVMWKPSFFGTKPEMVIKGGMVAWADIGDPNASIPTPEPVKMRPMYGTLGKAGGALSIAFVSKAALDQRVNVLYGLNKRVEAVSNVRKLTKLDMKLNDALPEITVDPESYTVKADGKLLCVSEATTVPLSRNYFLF

With `CCCCC(=O)N(Cc1ccc(-c2ccccc2-c2nn[nH]n2)cc1)C(C(=O)Oc1ccc(C=O)cc1)C(C)C` (centres unmarked) [AV6, 4-formylphenyl2-(N-((2′-(2H-tetrazol-5-yl)-[1, 1′-biphenyl]-4yl)methyl)pentanamido)-3methyl butanoate] the “%Age Inhibition ± SEM” value [1] was 76.3 ± 0.46%, the “%ge inh. of Phenylephrine Cont. (±SEM)” value (thoracic aorta segments) was 67.4 ± 5.1% and the “Mean of Systolic Blood Pressure ± SEM” value (conscious rats) was 81.21 ± 3.21. For the same molecule, the IC50 (urease; [2]) was 2130 ± 970 nM, the “Zone of Inhibition Gram +ve Bacteria B.pumilus Mean ± SEM” value (Bacillus pumilus) was 11.76 ± 1.06 millimeters and the “Zone of Inhibition Gram -Ve Bacteria E. coli Mean ± SEM” value (Escherichia coli) was 09.73 ± 0.44 millimeters. For the same molecule, the “Zone of Inhibition Gram -Ve Bacteria P. aeruginosa Mean ± SEM” value (Pseudomonas aeruginosa) was 10.73 ± 0.28 millimeters and the “Zone of Inhibition Gram +ve Bacteria S. aureus Mean ± SEM” value (Staphylococcus aureus) was 12.86 ± 0.72 millimeters.

For `CCCCC(=O)N(Cc1ccc(-c2ccccc2-c2nn[nH]n2)cc1)C(C(=O)Oc1cc(C)ccc1C(C)C)C(C)C` (centres unmarked) [AV8, 2-isopropyl-5-methylphenyl 2-(N-((2′-(2H-tetrazol-5yl)-[1, 1′-biphenyl]-4 yl)methyl)pentanamido)-3methyl butanoate], the “%Age Inhibition ± SEM” value [1] was 95.3 ± 0.55%, the “%ge inh. of Phenylephrine Cont. (±SEM)” value (thoracic aorta segments) was 71.6 ± 6.5% and the “Mean of Systolic Blood Pressure ± SEM” value (conscious rats) was 71.56 ± 4.32. The “folds more urease inhibition than standard Thiourea” value (urease; relative to Thiourea IC50) was 3 folds, the “Zone of Inhibition Gram +ve Bacteria B.pumilus Mean ± SEM” value (Bacillus pumilus) was 12.6 ± 0.60 millimeters and the “Zone of Inhibition Gram -Ve Bacteria E. coli Mean ± SEM” value (Escherichia coli) was 11.21 ± 0.41 millimeters. For the same molecule, the “Zone of Inhibition Gram -Ve Bacteria P. aeruginosa Mean ± SEM” value (Pseudomonas aeruginosa) was 12.23 ± 0.27 millimeters and the “Zone of Inhibition Gram +ve Bacteria S. aureus Mean ± SEM” value (Staphylococcus aureus) was 12.66 ± 1.06 millimeters.

With `CCCCC(=O)N(Cc1ccc(-c2ccccc2-c2nn[nH]n2)cc1)C(C(=O)Oc1ccc2ccccc2c1)C(C)C` (centres unmarked) [AV10, naphthalen-2-yl 2-(N-((2′-(2H-tetrazol-5-yl)-[1,1′-biphenyl]-4 yl)methyl)pentanamido)-3methyl butanoate] the “%Age Inhibition ± SEM” value [1] was 94.4 ± 0.52%, the “%ge inh. of Phenylephrine Cont. (±SEM)” value (thoracic aorta segments) was 69.8 ± 6.7% and the “Mean of Systolic Blood Pressure ± SEM” value (conscious rats) was 75.82 ± 4.12. The IC50 (urease; [2]) was 2050 ± 1050 nM, the “Zone of Inhibition Gram +ve Bacteria B.pumilus Mean ± SEM” value (Bacillus pumilus) was 10.30 ± 0.21 millimeters and the “Zone of Inhibition Gram -Ve Bacteria E. coli Mean ± SEM” value (Escherichia coli) was 10.40 ± 0.56 millimeters. The “Zone of Inhibition Gram -Ve Bacteria P. aeruginosa Mean ± SEM” value (Pseudomonas aeruginosa) was 12.63 ± 0.63 millimeters and the “Zone of Inhibition Gram +ve Bacteria S. aureus Mean ± SEM” value (Staphylococcus aureus) was 12.13 ± 0.37 millimeters.

For `CCCCC(=O)N(Cc1ccc(-c2ccccc2-c2nn[nH]n2)cc1)C(C(=O)Oc1ccccc1C(=O)O)C(C)C` (centres unmarked) [AV11, 2-((2-(N-((2′-(2H-tetrazole-5-yl)-[1,1′-biphenyl]-4yl)methyl)pentanamido)-3-methylbutanoyl)oxy) benzoic acid], the “%Age Inhibition ± SEM” value [1] was 95.6 ± 0.54%, the inhibition at 100 µM (thoracic aorta segments; Rattus norvegicus, read-out: %ge inh. of Phenylephrine Cont. (±SEM)) was 70.8 ± 7.7% and the “Mean of Systolic Blood Pressure ± SEM” value (conscious rats) was 72.71 ± 3.21. For the same molecule, the IC50 (urease) was 2190 ± 170 nM, the “Zone of Inhibition Gram +ve Bacteria B.pumilus Mean ± SEM” value (Bacillus pumilus) was 10.66 ± 0.52 millimeters and the “Zone of Inhibition Gram -Ve Bacteria E. coli Mean ± SEM” value (Escherichia coli) was 10.01 ± 0.55 millimeters. The “Zone of Inhibition Gram -Ve Bacteria P. aeruginosa Mean ± SEM” value (Pseudomonas aeruginosa) was 11.46 ± 0.53 millimeters and the “Zone of Inhibition Gram +ve Bacteria S. aureus Mean ± SEM” value (Staphylococcus aureus) was 12.53 ± 0.68 millimeters.
